One assay relates to L1210 cells. The assay can be described thus: Survival of pre-treated mice after L1210 tumor cell implantation. Type of assay: in vivo, mouse. The settings on record: pre-treatment 3 mg/Kg or equivalent i.p. every other day for 21 days. As for the experimental part: Protection against tumor growth was examined in mice pretreated with MTX or DP-MTX-71.
At the end of this regimen, the mice were injected with 1×10^6 L1210 cells into the peritoneum. The animals were then monitored for viability for 12 days subsequent to the injection of the tumor cells.

The subject of the next assay is Jurkat. The assay can be described thus: MTT cytotoxicity on tumor cell lines, Jurkat (Example 8). In kind it is cell-based. Particulars: Homo sapiens, T-cell lymphoma, 72 hours. As for the experimental part:
Cell viability was analyzed after 72 hours incubation (37° C., 5% CO2) using the colorimetric MTT assay (Mosmann (1983) J. Immunol Methods 65: 55-63).

For assay [1], the system named is Friend cells (an erythroleukemic cell line). The assay can be described thus: MTT cytotoxicity, Friend cells (Example 5). Type of assay: cell-based. Particulars: 72 hour. As for the experimental part: The toxicity of methotrexate derivatives of the invention (DP-MTX) was evaluated in an additional cell-culture system. The doses required to inhibit the growth of cultured Friend cells (an erythroleukemic cell line) by 50%, over a 72 hour period (ED50), were determined using a mitochondrial viability (MTT) endpoint assay.
Friend cells were seeded at a density of 10^4 cells/ml in RPMI medium supplemented with 10% FCS in 96 well plates. The cultured cells were incubated, during their linear growth phase, in the presence and absence of various concentrations of MTX derivatives. After 72 hours at 37° C., cell viability was estimated by using the colorimetric MTT assay.

Where “and” joins values, the source holds several entries; their conditions need not be identical. Identical values can stand only once.

For the compound `CN(Cc1cnc2nc(N)nc(N)c2n1)c1ccc(C(=O)N[C@@H](CCC(=O)O)C(=O)O)cc1` [MTX, Methotrexate], the Surviving mice in the assay on L1210 cells (9 days after tumor implantation) was 6/6; in the assay on L1210 cells (10 days after tumor implantation), 4/6; in the assay with L1210 cells (11 days after tumor implantation), 3/6; in the assay with L1210 cells (12 days after tumor implantation) it was 2 and 2/6. In the assay on Jurkat, this compound registered an EC50 of 21 nM. Also, the “ED50” value in assay [1] was determined as 10 nmol.
